Reference: US8658646B2, “Pyrrolopyrazine kinase inhibitors” (Hoffmann-LaRoche Inc., priority 2011, dated 2014)

Tests used:
[1] = target: T1, JAK3: Recombinant human kinase domain (Homo sapiens, UniProt P52333); assay: Determination of IC50 of Janus Kinase (JAK) inhibition, radioactive end-point 33P-ATP assay, JAK3; type: biochemical; conditions: ATP 1.5 uM, peptide 50 uM, 20 minutes, read-out: JAK3-INHIB-DR/v1~NO ADDITIVE~Enzyme_Conc = 100
T1 construct: JAK3: Recombinant human kinase domain from Millipore (Cat #14-629) or prepared; purchased Millipore 14-629
Description: Determination of IC50 of Janus Kinase (JAK) Inhibition:
Assay conditions used are described below: • Assay Buffer: JAK Kinase Buffer: 50 mM Hepes [pH 7.2], 10 mM MgCl2, 1 mM DTT, 1 mg/ml BSA. The assay was carried out in this buffer. • Assay Format The kinase activity of all three JAK kinases was measured using a radioactive, end-point assay and with trace amounts of ^33P-ATP. The assays were carried out in 96-well polypropylene plates. Experimental Method:
All concentrations were final in the reaction mixture and all incubations were carried at room temperature. […] Final concentration of DMSO in the reaction was 10%. • 2) Compounds were preincubated with enzyme (0.5 nM JAK3 (commercially available), 0.2 nM JAK3 (prepared), 1 nM JAK2, 5 nM JAK1) for 10 minutes. • 3) Reactions were initiated by the addition of a cocktail of the two substrates (ATP and peptide premixed in the JAK Kinase Buffer). […] JAK1 assay was carried out at an ATP concentration of 10 uM and a peptide concentration of 50 uM. • 4) The duration of the assay for JAK2 and JAK3 is 20 minutes. JAK1 assay was carried out for 40 minutes. With all three enzymes, reactions were terminated by the addition of 0.5M EDTA to a final concentration of 100 mM. • 5) 25 ul of terminated reactions were transferred to 150 ul of a 7.5% (v/v) slurry of streptavidin-coated sepharose beads in MgCl2- and CaCl2-free 1× Phosphate Buffered Saline containing 50 mM of EDTA in 96-well, 1.2 um MultiScreen-BV filter plates. • 6) After a 30-minute incubation, the beads were washed under vacuum with the following buffers: • a. 3 to 4 washes with 200 ul of 2M NaCl. • b. 3 to 4 washes with 200 ul of 2M NaCl plus 1% (v/v) phosphoric acid. • c. 1 wash with water. • 7) Washed plates were dried in a 60° C. oven for between 1 to 2 hours. • 8) 70 ul of Microscint 20 scintillation fluid was added to each well of filter plates and after at least 30 minutes of incubation, radioactive counts were measured in a Perkinelmer microplate scintillation counter.

[2] = target: T2, recombinant human SYK360-635 (Homo sapiens, UniProt P43405); assay: Determination of IC50 of Spleen Tyrosine Kinase (SYK) inhibition, 33P ATP filtration assay; type: biochemical; conditions: SYK aa 360-635 0.5 nM; ATP 20 μM, peptide 5 μM, 0.1% BSA; read-out: SYK_ENZYME_FILTRATION/v1, BSA
T2 construct: made in house

T1 sequence (P52333 822-1111 limits assumed): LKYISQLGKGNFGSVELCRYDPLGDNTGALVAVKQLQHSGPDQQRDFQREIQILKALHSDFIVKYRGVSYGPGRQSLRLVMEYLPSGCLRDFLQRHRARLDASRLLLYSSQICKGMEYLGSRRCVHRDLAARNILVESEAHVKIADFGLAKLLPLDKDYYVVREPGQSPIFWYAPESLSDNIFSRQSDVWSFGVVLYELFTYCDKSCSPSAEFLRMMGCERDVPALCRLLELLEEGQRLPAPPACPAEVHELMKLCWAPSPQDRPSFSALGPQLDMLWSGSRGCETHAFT

Row | SMILES | IC50 [1] | IC50 [2]
1 | Cn1nc(-c2cnc3[nH]cc(C(=O)NC4CCC(NS(C)(=O)=O)C4)c3n2)c2ccc(Cl)cc21 (stereo not shown) [Example I-38, 2-(6-Chloro-1-methyl-1H-indazol-3-yl)-5H-pyrrolo[2,3-b]pyrazine-7-carboxylic acid (3-methanesulfonylamino-cyclopentyl)-amide] | 9.01 nM | 15.9 nM
2 | COC[C@H](C)NC(=O)c1c[nH]c2ncc(-c3nc(Cl)n4cc(F)ccc34)nc12 [Example I-39, 2-(3-Chloro-6-fluoro-imidazo[1,5-a]pyridin-1-yl)-5H-pyrrolo[2,3-b]pyrazine-7-carboxylic acid ((S)-2-methoxy-1-methyl-ethyl)-amide] | 5.81 nM | 243 nM
3 | COC[C@H](C)NC(=O)c1c[nH]c2ncc(-c3ncn4cc(F)cc(F)c34)nc12 [Example I-40, 2-(6,8-Difluoro-imidazo[1,5-a]pyridin-1-yl)-5H-pyrrolo[2,3-b]pyradine-7-carboxylic acid ((S)-2-methoxy-1-methyl-ethyl)-amide] | 10.2 nM | 994 nM
4 | C[C@@H](NC(=O)c1c[nH]c2ncc(-c3nn(C)c4cc(F)ccc34)nc12)C(C)(C)F [Example I-44, 2-(6-Fluoro-1-methyl-1H-indazol-3-yl)-5H-pyrrolo[2,3-b]pyrazine-7-carboxylic acid ((R)-2-fluoro-1,2-dimethyl-propyl)-amide] | 13.9 nM | 16 nM
5 | C[C@H](NC(=O)c1c[nH]c2ncc(-c3nn(C)c4cc(F)ccc34)nc12)C(C)(C)C [Example I-45, 2-(6-Fluoro-1-methyl-1H-indazol-3-yl)-5H-pyrrolo[2,3-b]pyrazine-7-carboxylic acid ((S)-1,2,2-trimethyl-propyl)-amide] | 0.535 nM | 11 nM
6 | CC(NC(=O)c1c[nH]c2ncc(-c3nn(C)c4cc(Cl)ccc34)nc12)c1ncco1 (stereo not shown) [Example I-48, 2-(6-Chloro-1-methyl-1H-indazol-3-yl)-5H-pyrrolo[2,3-b]pyrazine-7-carboxylic acid (1-oxazol-2-yl-ethyl)-amide] | 4.91 nM | 22.1 nM
7 | CC(NC(=O)c1c[nH]c2ncc(-c3nn(C)c4cc(F)ccc34)nc12)c1cocn1 (stereo not shown) [Example I-52, 2-(6-Fluoro-1-methyl-1H-indazol-3-yl)-5H-pyrrolo[2,3-b]pyrazine-7-carboxylic acid (1-oxazol-4-yl-ethyl)-amide] | 8.87 nM | 19.4 nM
8 | Cc1cc(C(C)NC(=O)c2c[nH]c3ncc(-c4nn(C)c5cc(F)ccc45)nc23)no1 (stereo not shown) [Example I-54, 2-(6-Fluoro-1-methyl-1H-indazol-3-yl)-5H-pyrrolo[2,3-b]pyrazine-7-carboxylic acid [1-(5-methyl-isoxazol-3-yl)-ethyl]-amide] | 14 nM | 77.7 nM
9 | CC(NC(=O)c1c[nH]c2ncc(-c3nn(C)c4cc(F)ccc34)nc12)c1ccno1 (stereo not shown) [Example I-55, 2-(6-Fluoro-1-methyl-1H-indazol-3-yl)-5H-pyrrolo[2,3-b]pyrazine-7-carboxylic acid (1-isoxazol-5-yl-ethyl)-amide] | 16.9 nM | 56.4 nM
10 | C[C@@H](NC(=O)c1c[nH]c2ncc(-c3nn(C)c4cc(F)ccc34)nc12)C(C)(F)F [Example I-56, 2-(6-Fluoro-1-methyl-1H-indazol-3-yl)-5H-pyrrolo[2,3-b]pyrazine-7-carboxylic acid ((R)-2,2-difluoro-1-methyl-propyl)-amide] | 11.7 nM | 7.23 nM
11 | C[C@@H](NC(=O)c1c[nH]c2ncc(-c3nn(C)c4cc(F)ccc34)nc12)C1=NCCO1 [Example I-60, 2-(6-Fluoro-1-methyl-1H-indazol-3-yl)-5H-pyrrolo[2,3-b]pyrazine-7-carboxylic acid [(R)-1-(4,5-dihydro-oxazol-2-yl)-ethyl]-amide] | 27.4 nM | 31.9 nM
12 | CC(NC(=O)c1c[nH]c2ncc(-c3nn(C)c4cc(F)ccc34)nc12)[C@H]1C[C@@H](O)C1 (stereo partly drawn) [Example I-73, 2-(6-Fluoro-1-methyl-1H-indazol-3-yl)-5H-pyrrolo[2,3-b]pyrazine-7-carboxylic acid [1-(cis-3-hydroxy-cyclobutyl)-ethyl]-amide] | 19.7 nM | 9.95 nM
13 | CC(NC(=O)c1c[nH]c2ncc(-c3nn(C)c4cc(F)ccc34)nc12)[C@H]1C[C@H](O)C1 (stereo partly drawn) [Example I-75, 2-(6-Fluoro-1-methyl-1H-indazol-3-yl)-5H-pyrrolo[2,3-b]pyrazine-7-carboxylic acid [1-(trans-3-hydroxy-cyclobutyl)-ethyl]-amide] | 20.6 nM | 9.2 nM
14 | C[C@@H](NC(=O)c1c[nH]c2ncc(-c3nccc4ccccc34)nc12)C(=O)N1CC(C#N)C1 [Example I-77, 2-Isoquinolin-1-yl-5H-pyrrolo[2,3-b]pyrazine-7-carboxylic acid [(R)-2-(3-cyano-azetidin-1-yl)-1-methyl-2-oxo-ethyl]-amide] | 53.8 nM | > 10000 nM

Further lines, results first:

Row | IC50 [1] | IC50 [2] | SMILES
15 | 14.2 nM | 30.2 nM | C[C@@H](NC(=O)c1c[nH]c2ncc(-c3nn(C)c4cc(F)ccc34)nc12)c1ccccn1 [Example I-78, 2-(6-Fluoro-1-methyl-1H-indazol-3-yl)-5H-pyrrolo[2,3-b]pyrazine-7-carboxylic acid ((R)-1-pyridin-2-yl-ethyl)-amide]
16 | 12.6 nM | 29.1 nM | C[C@H](NC(=O)c1c[nH]c2ncc(-c3nn(C)c4cc(Cl)ccc34)nc12)C(C)(C)C#N [Example I-80, 2-(6-Chloro-1-methyl-1H-indazol-3-yl)-5H-pyrrolo[2,3-b]pyrazine-7-carboxylic acid ((S)-2-cyano-1,2,2-trimethyl-ethyl)-amide]
17 | 0.9 nM | 33.4 nM | CCn1nc(-c2cnc3[nH]cc(C(=O)N[C@H](C)C(=O)N4CC(C#N)C4)c3n2)c2ccc(Cl)cc21 [Example I-85, 2-(6-Chloro-1-ethyl-1H-indazol-3-yl)-5H-pyrrolo[2,3-b]pyrazine-7-carboxylic acid [(R)-2-(3-cyano-azetidin-1-yl)-1-methyl-2-oxo-ethyl]-amide]
18 | 0.745 nM | 109 nM | C[C@@H](NC(=O)c1c[nH]c2ncc(-c3nn(C)c4c(F)c(F)ccc34)nc12)C(=O)N1CC(C#N)C1 [Example I-86, 2-(6,7-Difluoro-1-methyl-1H-indazol-3-yl)-5H-pyrrolo[2,3-b]pyrazine-7-carboxylic acid [(R)-2-(3-cyano-azetidin-1-yl)-1-methyl-2-oxo-ethyl]-amide]
19 | 1.78 nM | 158 nM | CCc1ccc2c(-c3cnc4[nH]cc(C(=O)N[C@H](C)C(=O)N5CC(C#N)C5)c4n3)nn(C)c2c1 [Example I-87]
20 | 10.8 nM | 13.8 nM | CC(C)NC(=O)c1c[nH]c2ncc(-c3nn(C)c4cc(F)cc(F)c34)nc12 [Example I-101, 2-(4,6-Difluoro-1-methyl-1H-indazol-3-yl)-5H-pyrrolo[2,3-b]pyrazine-7-carboxylic acid isopropylamide]
21 | 1.63 nM | 18.7 nM | CC(C)NC(=O)c1c[nH]c2ncc(-c3nn(C4COC4)c4cc(F)ccc34)nc12 [Example I-102, 2-(6-Fluoro-1-oxetan-3-yl-1H-indazol-3-yl)-5H-pyrrolo[2,3-b]pyrazine-7-carboxylic acid isopropylamide]
22 | 0.26 nM | 43.8 nM | COC[C@H](C)NC(=O)c1c[nH]c2ncc(-c3nn(C4COC4)c4cc(F)ccc34)nc12 [Example I-103, 2-(6-Fluoro-1-oxetan-3-yl-1H-indazol-3-yl)-5H-pyrrolo[2,3-b]pyrazine-7-carboxylic acid ((S)-2-methoxy-1-methyl-ethyl)-amide]
23 | 5.68 nM | 41 nM | CC(C)NC(=O)c1c[nH]c2ncc(-c3nn(C4CNC4)c4cc(F)ccc34)nc12 [Example I-104, 2-(1-Azetidin-3-yl-6-fluoro-1H-indazol-3-yl)-5H-pyrrolo[2,3-b]pyrazine-7-carboxylic acid isopropylamide]
24 | 11.5 nM | 20.8 nM | Cn1nc(-c2cnc3[nH]cc(C(=O)NC4CCOC4)c3n2)c2ccc(Cl)cc21 (stereo not shown) [Example I-107, 2-(6-Chloro-1-methyl-1H-indazol-3-yl)-5H-pyrrolo[2,3-b]pyrazine-7-carboxylic acid (tetrahydro-furan-3-yl)-amide]
25 | 7.3 nM | 249 nM | Cn1nc(-c2cnc3[nH]cc(C(=O)NC4CCCCC4)c3n2)c2ccc(Cl)cc21 [Example I-110, 2-(6-Chloro-1-methyl-1H-indazol-3-yl)-5H-pyrrolo[2,3-b]pyrazine-7-carboxylic acid cyclohexylamide]
26 | 3.97 nM | 21.7 nM | Cn1nc(-c2cnc3[nH]cc(C(=O)NC4CCCOC4)c3n2)c2ccc(Cl)cc21 (stereo not shown) [Example I-111, 2-(6-Chloro-1-methyl-1H-indazol-3-yl)-5H-pyrrolo[2,3-b]pyrazine-7-carboxylic acid (tetrahydro-pyran-3-yl)-amide]
27 | 14.6 nM | 33.3 nM | Cn1nc(-c2cnc3[nH]cc(C(=O)NC4CCOCC4)c3n2)c2ccc(Cl)cc21 [Example I-112, 2-(6-Chloro-1-methyl-1H-indazol-3-yl)-5H-pyrrolo[2,3-b]pyrazine-7-carboxylic acid (tetrahydro-pyran-4-yl)-amide]
28 | 256 nM | 198 nM | Cn1nc(-c2cnc3[nH]cc(C(=O)NC4CCS(=O)(=O)C4)c3n2)c2ccc(Cl)cc21 (stereo not shown) [Example I-113, 2-(6-Chloro-1-methyl-1H-indazol-3-yl)-5H-pyrrolo[2,3-b]pyrazine-7-carboxylic acid (1,1-dioxo-tetrahydro-1λ6-thiophen-3-yl)-amide]
29 | 12.8 nM | 12.1 nM | Cn1nc(-c2cnc3[nH]cc(C(=O)NCC(C)(C)CO)c3n2)c2ccc(F)cc21 [Example I-114, 2-(6-Fluoro-1-methyl-1H-indazol-3-yl)-5H-pyrrolo[2,3-b]pyrazine-7-carboxylic acid (3-hydroxy-2,2-dimethyl-propyl)-amide]
